Test results reported in patent publication US20160022751A1, “NOVEL COMPOSITION FOR TREATING ALZHEIMER'S DISEASE AND IMPROVING COGNITIVE FUNCTION OF ALZHEIMER'S PATIENTS” (GANGNEUNG-WONJU NATIONAL UNIVERSITY INDUSTRY ACADEMY …, priority 2014, published 2016).

Assays:
Format in all cases: cell-based, mouse
acetylcholine = assay: Acetylcholine content in culture medium of N2a cells (assay kit); details: culture medium of N2a cells, 1, 2.5 and 5 μg/ml, 48 h (FIG. 7F)
Protocol: Further, the present inventor measured contents of acetylcholine in culture medium of N2a cells treated with Rd and/or […] (1, 2.5 and 5 μg/ml) for 48 h using a commercial acetylcholine assay kit (Cell Biolabs, USA), based on the enzyme driven reaction that will detect acetylcholine via acetylcholine esterase enzyme and choline oxidase according to the manufacturer's instruction (FIG. 7F).

MAP-2 [1] = assay: MAP-2 mRNA expression in N2a cells (real-time RT-PCR); details: 5 μg/ml (FIG. 8)
Protocol: Specifically, total RNA extracts from N2a cells were prepared using the Trizol method (Invitrogen, USA) and cDNA was synthesized from RNA by reverse transcription of 1 μg of total RNA using a reverse transcription system (Improm-II, Promega, USA) and oligo dT primers in a total volume of 20 μL. PCR amplification was performed using the primers described in Table 2 (Bioneer, Korea). Quantitative real-time PCR reactions were run on a Rotor-Gene 6000 (Corbett Research, Australia) using SensiMix™ SYBR Hi-ROX Kit (Bioline, U.K.) in 20 μL reaction mixtures. Each real-time-PCR master mix contained 10 μL 2× enzyme master mix, 7.0 μL RNase free water, 1 μL of each primer (10 pM each), and 1 μL diluted template. The PCR was performed with an initial pre-incubation step for 15 min at 95° C., followed by 45 cycles of 95° C. for 15 s, annealing at 52° C. for 15 s, and extension at 72° C. for 10 s. Melting curve analysis was used to confirm formation of the expected PCR product, and products from all assays were additionally tested with 1.2% agarose gel electrophoresis to confirm the correct lengths. […] Relative sample expression levels were calculated using Rotor-Gene 6000 Series Software 1.7, and were expressed relative to β-actin and corrected for between-run variability. Data for the experimental samples were expressed as a fold unit the internal control gene. […]

MAP-2 [2] = assay: MAP-2 protein immunocytochemistry in N2a cells; details: compared with NGF (FIG. 9A)
Protocol: (§1) Followed by the RT-PCR analysis, the present inventor investigated whether ginsenosides Re and Rd induce the expression of MAP-2 and p75 and the differentiation of neurons actually, via immunocytochemistry and morphological analysis using optical microscopic observation.
(§2) Specifically, Cultured N2a cells were fixed in 4% paraformaldehyde (in PBS) for 15 min, washed twice with PBS supplemented with 100 mM glycine for 5 min, and incubated with permeabilization buffer consisting of 0.1% Triton X-100 (Sigma-Aldrich, USA) in PBS for 30 min at room temperature. Blocking was performed with 1% bovine serum albumin (BSA, Sigma-Aldrich, USA) for 30 min at room temperature. Then Microtubule-Associated Protein-2 (MAP-2) or VAChT mouse monoclonal antibody 1:200 (Santa Cruz Biotechnology, USA) was added to 1% BSA in PBS with Tween 20 (PBST) and incubated for 2 h at room temperature. Cells were then washed three times with PBS before fluorescein isothiocyanate (FITC)-conjugated anti-mouse immunoglobulin G (IgG) 1:200 (Cell Signaling Technology, USA) was added to 1% BSA for 1 h at room temperature. The cells were rinsed and counterstained with 4,6-diamidino-2-phenylindole (DAPI, Sigma-Aldrich) for 10 min, followed by two PBS washes. […]

p75 = p75 protein immunocytochemistry in N2a cells; details: compared with NGF (FIG. 9B)
Protocol: as §1, §2

N2a cells = assay: Morphological analysis of N2a cells (optical microscopy); details: untreated cells mostly rounded (FIG. 9C)
Protocol: as §1, §2

ERK = ERK phosphorylation in N2a cells (western blot); details: compared with NGF (FIG. 10)
Source text: The cholinergic marker ChAT and VAChT are known activate the ERK and Akt lower level path for cholinergic gene expression (Williams et al., Neurosci. Lett., 413: 110-114, 2007; Madziar et al., J. Neurochem., 107: 1284-1293, 2007) by controlling the NGF-TrkA signaling pathway. Thus, the present inventor investigated whether ginsenosides Rd and Re regulate activity of ERK and Akt in N2a cells using through western blot analysis. Specifically, N2a cells were lysed in 1% radioimmunoprecipitation assay (RIPA) buffer containing protease and phosphatase inhibitors (Roche, Mannheim, Germany) and whole cell lysates were separated by 10% sodium dodecyl sulfate polyacrylamide gel electrophoresis (SDS-PAGE). After electrophoresis, proteins were transferred onto polyvinylidene fluoride (PVDF) membranes and the membranes were blocked with 5% skim milk in Tris-buffered saline solution containing 0.1% Tween-20. The membrane was then immunoblotted with primary antibodies, anti-phospho-Akt, anti-phospho-extracellular signal-regulated protein kinase (ERK), anti-ChAT and anti-f3-actin (Santa Cruz Biotechnology, Santa Cruz, USA), and this was followed by incubation with horseradish peroxidase-conjugated anti-rabbit or anti-mouse secondary antibodies (Stressgen, USA). Blots were developed using an enhanced chemiluminescence (ECL) solution (Thermo, USA).

NGF = NGF mRNA expression in N2a cells (quantitative RT-PCR); details: N2a cells (FIG. 13)
Source text: (§3) Since NGF-Trk signal pathway upregulates ChAT and VAChT, it is important to know whether ginsenosides Rd and Re regulate Trk activity directly or at least indirectly. Therefore, the inventor investigated whether the expression of ChAT and VAChT was blocked by treating K252a, an inhibitor against protein kinase C (PKC) and Trk together with ginsenoside Rd or Re, in order to determine more closely whether the expression of cholinergic surface markers and the differentiation of neurons by the treatment of ginsenosides Rd and Re are caused whereby they act NGF-TrkA pathway directly. Particularly, N2a cells were treated with or without K252a (50 nM) in the presence of NGF (100 ng/mL), Re (5 μg/mL) or Rd (5 μg/mL) for 48 h. Total RNA and protein lysates were isolated as described in the Example 4-1 (FIG. 12). […] In addition, the present inventor performed quantitative RT-PCR in order to verify whether the treatment of ginsenosides Rd and Re affect the expression of NGF and NGFR in N2a cells.

NGFR (p75) = NGFR (p75) mRNA expression in N2a cells (quantitative RT-PCR); details: N2a cells (FIG. 13)
Source text: as §3

Row | SMILES | acetylcholine production (acetylcholine) | expression of MAP-2 mRNA (MAP-2 [1]) | production of MAP-2 protein (MAP-2 [2]) | p75 protein expression (p75) | morphological changes of N2a cells (N2a cells) | ERK activation (phosphorylation) (ERK) | NGF mRNA level (NGF) | NGFR (p75) mRNA level (NGFR (p75))
1 | CC(C)=CCC[C@](C)(O[C@@H]1O[C@H](CO)[C@@H](O)[C@H](O)[C@H]1O)[C@H]1CC[C@]2(C)[C@@H]1[C@H](O)C[C@@H]1[C@@]3(C)CC[C@H](O[C@@H]4O[C@H](CO)[C@@H](O)[C@H](O)[C@H]4O[C@@H]4O[C@H](CO)[C@@H](O)[C@H](O)[C@H]4O)C(C)(C)[C@@H]3CC[C@]12C [ginsenoside Rd] | increased significantly | significantly increased | stimulated effectively the production of MAP-2 protein | switched to p75-positive N2a cells to the same or more extent as NGF | induced the production of distinctive multiple projections | could activate ERK and Akt with phosphorylation as much as NGF | significantly increased | significantly increased
2 | CC(C)=CCC[C@](C)(O[C@@H]1O[C@H](CO)[C@@H](O)[C@H](O)[C@H]1O)[C@H]1CC[C@]2(C)[C@@H]1[C@H](O)C[C@@H]1[C@@]3(C)CC[C@H](O)C(C)(C)[C@@H]3[C@@H](O[C@@H]3O[C@H](CO)[C@@H](O)[C@H](O)[C@H]3O[C@@H]3O[C@@H](C)[C@H](O)[C@@H](O)[C@H]3O)C[C@]12C [ginsenoside Re] | increased significantly | significantly increased | stimulated effectively the production of MAP-2 protein | switched to p75-positive N2a cells to the same or more extent as NGF | induced the production of distinctive multiple projections | could activate ERK and Akt with phosphorylation as much as NGF | significantly increased | significantly increased
